Test results reported in the NIST ThermoML archive (doi:10.1021/je9006579).

Tests used:
[1] = molar heat capacity at constant pressure; details: 101.33 kPa, Liquid, Cooling curve
[2] = molar heat capacity at constant pressure; xn = mol fraction of the nth substance listed; details: 101 kPa, Liquid

CC(=O)O [acetic acid]
[1]
Details	molar heat capacity at constant pressure [J/K/mol]
313.15 K	135.5
333.15 K	137.21

CC(=O)OC(C)=O [ethanoic anhydride] + CC(=O)O
molar heat capacity at constant pressure [J/K/mol], [2], Cooling curve
Details	x1 = 0.0613	x1 = 0.1282	x1 = 0.2013	x1 = 0.2817	x1 = 0.3704	x1 = 0.4687	x1 = 0.5785	x1 = 0.7017	x1 = 0.8411	x1 = 1
308.15 K	139.18	144.25	149.4	154.9	160.85	167.3	174.47	182.33	190.56	199.93
313.15 K	139.82	144.91	150.09	155.59	161.58	168.08	175.28	183.12	191.49	200.73
318.15 K	140.51	145.46	150.76	156.27	162.26	168.76	176.03	183.96	192.33	201.58
323.15 K	141.12	145.9	151.31	156.85	162.89	169.45	176.76	184.78	193.23	202.53
328.15 K	141.75	146.52	152.03	157.59	163.68	170.33	177.68	185.79	194.35	203.67
333.15 K	142.23	147.13	152.51	158.1	164.24	170.89	178.31	186.44	195	204.34

CC(=O)O [acetic acid] + CC(=O)OC(C)=O
[2], Cooling curve, x2 = 0
Details	molar heat capacity at constant pressure [J/K/mol]
308.15 K	134.93
313.15 K	135.5
318.15 K	136
323.15 K	136.35
328.15 K	136.87
333.15 K	137.21

CC(=O)OC(C)=O [ethanoic anhydride]
[1]
Details	molar heat capacity at constant pressure [J/K/mol]
313.15 K	200.73
333.15 K	204.34

CCCCCCC [heptane]
[1]
Details	molar heat capacity at constant pressure [J/K/mol]
313.15 K	230.37
333.15 K	240.03

C1N2CN3CN1CN(C2)C3 [1,3,5,7-tetraazaadamantane] + CC(=O)O
molar heat capacity at constant pressure [J/K/mol], [2], Vacuum adiabatic calorimetry
Details	x1 = 0.022	x1 = 0.0454	x1 = 0.0703	x1 = 0.0967	x1 = 0.1249	x1 = 0.1551	x1 = 0.1873	x1 = 0.2221
308.15 K	137.35	144.8	151.94	159.76	170.64	180.97	191.09	203.69
313.15 K	142.53	150.32	157.16	165.58	176.29	187.61	198.06	210.89
318.15 K	147.51	155.25	162.14	170.38	181.92	193.63	203.66	216.63
323.15 K	152.45	160.18	166.78	175.7	186.63	198.28	209.59	222.76
328.15 K	157.24	165.08	172	180.88	191.96	204.18	214.96	–
333.15 K	161.64	169.05	176.96	185.28	197.37	209.36	220.93	235.17
